Measurements from patent US20130203730A1, “BENZOTHIAZOLES AS GHRELIN RECEPTOR MODULATORS” (AstraZeneca AB, priority 2007, published 2013).
pEC50, pIC50: −log10 of the molar value.

What was measured:
human GHS receptor [1] = target: T1, human GHS receptor (Homo sapiens, UniProt Q92847); experiment: Ghrelin IP1 agonist assay (IP1 HTRF) in HEK293s cells expressing human GHS receptor; format: cell-based
T1 construct: expressed in transfected cells
Description: In HEK293s cells stably expressing human GHS receptor (In-house), agonist activity was assessed by measuring intracellular myo-Inositol 1 phosphate (IP1) using the IP1 HTRF assay kit (Cisbio International).
Cells were harvested using accutase (Sigma), spun down at 1000 rpm for 5 minutes and resuspended in stimulation buffer (as above) containing 0.02% fatty acid free BSA at a density of 1.43E6 cells/ml.

human GHS receptor [2] = target: T1, human GHS receptor; experiment: h bind IC50 (binding assay, hBindingIC50)

T1 sequence (Q92847 whole entry): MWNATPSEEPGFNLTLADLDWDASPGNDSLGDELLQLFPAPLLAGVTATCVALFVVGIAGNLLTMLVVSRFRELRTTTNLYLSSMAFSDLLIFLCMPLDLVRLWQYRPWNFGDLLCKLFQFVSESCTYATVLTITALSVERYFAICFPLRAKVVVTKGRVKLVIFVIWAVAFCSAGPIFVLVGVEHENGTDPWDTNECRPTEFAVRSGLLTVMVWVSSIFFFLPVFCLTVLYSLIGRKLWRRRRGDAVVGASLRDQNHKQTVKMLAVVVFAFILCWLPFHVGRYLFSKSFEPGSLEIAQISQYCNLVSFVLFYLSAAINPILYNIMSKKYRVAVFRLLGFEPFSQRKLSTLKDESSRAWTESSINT

## CCS(=O)(=O)c1ccccc1C(=O)NC(=O)Nc1nc2ccc(S(C)(=O)=O)cc2s1 [Example 135, 2-Ethylsulfonyl-N-[(6-methylsulfonylbenzothiazol-2-yl)carbamoyl]benzamide]
Human GHS receptor [1]; HEK293S, 2 h, agonist effect as % maximal effect of GHRP-6 (5 μM), read-out: h IP1 ag %
  Emax: 18.2%
Human GHS receptor [1]; HEK293s cells stably expressing human GHS receptor, read-out: h IP1 ag EC50
  pEC50: 5.43
Human GHS receptor [2]
  pIC50: 5.65
